The values that follow come from US20240216410A1, “METHODS AND COMPOSITIONS FOR TREATING CANCER THERAPY-INDUCED NEUTROPENIC FEVER AND/OR GVHD” (BOARD OF REGENTS, THE UNIVERSITY OF TEXAS SYSTEM, priority 2021, published 2024).

One experiment has as its system intestinal microbiota. The experiment can be described thus: Murine GVHD model: fecal microbiome composition (16S rRNA sequencing) and bacterial density (qPCR). To be noted: day 20; meropenem-treated mice with or without oral xylose 0.5% days 13 to 20. In kind it is in vivo, mice. The protocol: Effects of meropenem treatment on the composition of the intestinal microbiota of allo-HSCT mice were also examined (FIG. 15F).
Sequencing of 16S rRNA gene amplicons. Fecal samples from patients and mice were weighed before DNA isolation. In brief, genomic DNA was isolated using the QIAAMP® DNA mini kit (51306, QIAGEN®) according to the manufacturer's protocol that was modified to include an intensive bead-beating lysis step. The V4 region of 16S rRNA gene was amplified by PCR from 100 ng of each of extracted and purified genomic DNA using 515 forward and 806 reverse primer pairs (59). The quality and quantity of the barcoded amplicons were assessed on an Agilent 4200 TapeStation system (Agilent) and QUBIT™ Fluorometer (THERMO FISHER […]™), and libraries were prepared after pooling at equimolar ratios. The final libraries were purified using […]® gel extraction kit (28706X4, QIAGEN®) and sequenced with a 2×250 base pair paired-end protocol on the […]® MISEQ™ platform.
Microbiome data analysis. Sequencing data from paired-end reads were de-multiplexed using QIIME 2 (60). Merging of paired-end reads, dereplicating, and length filtering was performed using VSEARCH 2.17.1 (61). Following de-noising and chimera calling using the unoise3 command (62), unique sequences were taxonomically classified with mothur (63) using the Silva database (64) version 138. Weighted UniFrac distances (65) were determined using QIIME 2, visualized using principal coordinate analysis, and evaluated for statistical significance using permutational multivariate analysis of variance (PERMANOVA) testing. For differential abundance analysis, abundances of sequences belonging to taxonomical groups were included for analysis using the Mann-Whitney U test and adjusted for multiple comparisons using the method of Benjamini and Hochberg. Paired samples were analyzed using the Wilcoxon signed rank test with adjustment for multiple comparisons.
Quantification of fecal bacterial density. Genomic DNA was isolated from stool as described above. qPCR was performed as previously described (66). In brief, 16S rRNA gene sequences were amplified from total fecal DNA using the primers 926F (5′-[…]-3′, where K is a G or a T; SEQ ID NO:2) and 1062R (5′-[…]-3′, where R is an A or a G; SEQ ID NO:3). Real-time PCR were carried out in 96-well optical plates on QUANTSTUDIO™ Flex 6 RT PCR (APPLIED BIOSYSTEMS™) and KAPA SYBR® FAST Master Mix (Roche). The PCR conditions included one initial denaturing step of 10 min at 95° C. and 40 cycles of 95° C. for 20 sec and 60 °C for 1 min. Melting-curve analysis was performed after amplification. To determined bacterial density, a plasmid with a 16S rRNA gene of a murine Blautia isolate was generated in the pCR4 backbone and used as a standard.
A general note: Real-time PCR tracks product formation cycle by cycle.

Another experiment concerns BT (MDA-JAX BT001). The experiment can be described thus: Mucin degradation assay of BT in porcine gastric mucin medium with monosaccharides. In kind it is cell-based, Bacteroides thetaiotaomicron. To be noted: monosaccharide added at 15 hours, further 3 hours. The protocol: (§1) To examine the effects of the presence of monosaccharides on mucin utilization by BT, BT was cultivated in bacterial media containing porcine gastric mucin, a panel of monosaccharides was subsequently added, including arabinose and xylose, and levels of remaining mucin were quantified using a colorimetric assay (FIG. 18C). In the absence of additional monosaccharides, BT readily metabolized porcine gastric mucin.
Bacteria were cultured up to 48 hours at a starting concentration of 1×10^6 bacteria/ml in BYEM10 broth (pH 7.2) with and without 5 mg/ml of porcine gastric mucin (M1778, Sigma-Aldrich). Optical densities (OD600 nm) of bacterial cultures were measured with a BioTek EPOCH™ 2 plate reader.
Mucin degradation assay. Levels of mucin glycans in culture supernatants were determined by a PAS-based colorimetric assay as previously described (67) with minor modifications. Briefly, culture supernatants were centrifuged at 20,000 g, 4° C. for 10 minutes and collected. To perform mucin precipitation, 500 μL of culture supernatants were mixed with 1 mL of molecular grade ethanol and incubated at −30° C. overnight. Culture supernatants were centrifuged at 20,000 g, 4° C. for 10 minutes. Mucin-containing pellets were washed with 1 mL of molecular grade ethanol twice and resuspended in 500 μL of PBS. […] Absorbance was measured at 550 nm using a BioTek SYNERGY™ HTX plate reader.

Experiment [1] has as its system mouse and human-derived BT. The experiment can be described thus: Growth of BT in carbohydrate-poor media with monosaccharide. In kind it is cell-based, Bacteroides thetaiotaomicron. Conditions: OD600 nm up to 30 hours. The protocol: Allo-HSCT recipient mice were treated with meropenem as in FIG. 15A and with xylose from days 13 to 20 (FIG. 18F). […] Importantly, in vitro, growth of mouse and human-derived BT in carbohydrate-poor media was augmented by xylose (FIG. 23B). […] Bacteria were cultured up to 48 hours at a starting concentration of 1×10^6 bacteria/ml in BYEM10 broth (pH 7.2) with and without 5 mg/ml of porcine gastric mucin ([…], Sigma-Aldrich). Optical densities (OD600 nm) of bacterial cultures were measured with a BioTek EPOCHTM 2 plate reader.

The next experiment has as its system colonic mucus layer. The experiment can be described thus: Murine GVHD model: colonic mucus layer thickness (PAS staining). In kind it is in vivo, mice. Conditions: day 20; xylose days 13 to 20 vs GVHD mice receiving meropenem alone. The protocol:
Next, assessed was the impact of meropenem treatment on the dense colonic mucus layer of mice with GVHD.
Allo-HSCT recipient mice were treated with meropenem as in FIG. 15A and with xylose from days 13 to 20 (FIG. 18F). […] Importantly, in vitro, growth of mouse and human-derived BT in carbohydrate-poor media was augmented by xylose (FIG. 23B).
Xylose administration. D-(+)-xylose (X3877, SIGMA-ALDRICH®) was dissolved in phosphate buffer pH 8.0 with meropenem or in water without meropenem and given at a concentration of 0.5% from days 13 to 20 after allo-HSCT.
Histological and immunohistochemistry analysis. […] Pathology scores were quantified by a blinded pathologist. […] Sections were imaged using an APERIO® AT2.

The test system of experiment [2] is murine BT GH2 β-galactosidase, GH33 sialidase, GH29 α-L-fucosidase. Put plainly: Quantitative real-time PCR of GH2, GH29 and GH33 BT loci. In kind it is cell-based, Bacteroides thetaiotaomicron. To be noted: BT cultured with or without monosaccharides.
Text: as §1
Quantitative real-time PCR analysis of BT loci. Total RNA was isolated from in vitro cultured BT as described above. The cDNA was synthesized using a High-Capacity cDNA Reverse Transcription Kit (4368814, APPLIED BIOSYSTEMS™). The mRNA levels of selected targets were quantified by qPCR using KAPA SYBR® FAST Master Mix (Roche) and specific probes (GH2, 5′-[…]-3′ (SEQ ID NO:4) for the forward primer, 5′-[…]-3′ (SEQ ID NO:5) for the reverse primer; GH29, 5′-[…]-3′ (SEQ ID NO:6) for the forward primer, 5′-[…]-3′ (SEQ ID NO:7) for the reverse primer; GH33, 5′-[…]-3′ (SEQ ID NO:8) for the forward primer, 5′-[…]-3′ (SEQ ID NO:9) for the reverse primer) and were normalized to BT specific probes (5′-[…]-3′ (SEQ ID NO:10) for the forward primer, 5′-[…]-3′ (SEQ ID NO:11) for the reverse primer) (75).

The structures appear in SMILES notation.

Turning to `O=C[C@H](O)[C@@H](O)[C@H](O)CO` [xylose, D-(+)-xylose], the “relative abundances of BT” value in the experiment on intestinal microbiota is “not significantly different”. Also, in the experiment on BT (MDA-JAX BT001), the “mucin utilization by BT” value is on record as “significantly suppressed”. For the same compound, in experiment [1], the “growth of BT in carbohydrate-poor media” value is given as “augmented”. Besides, in the experiment with colonic mucus layer, the colonic mucus thickness result is listed as “prevented thinning of the colonic mucus thickness”. In experiment [2], the “expression of GH2 β-galactosidase by murine BT” value is given as “not significantly impacted”; the “expression of GH33 sialidase and GH29 α-L-fucosidase by murine BT” value is given as “suppressed”.
